These results are taken from patent US10004701B2, “Methods and compositions for treating infection” (UNIVERSITY OF ROCHESTER, priority 2012, dated 2018).

Where a name gives a salt, the structure may show the parent alone. Read-outs that look alike come from different tables or passages of the source.

Test in all cases: AK assay 384-well format, Prestwick library screening
In one assay the test system is E. faecium. It counts as cell-based, Enterococcus faecium. The note with it: 50 μM final drug concentration; for fold induction at 50 µM: Enterococcus faecium, 3 h.
Assay [1] deals with S. aureus strain USA300-0114. It counts as cell-based, Staphylococcus aureus. The note with it: 50 μM final drug concentration; for fold induction at 50 µM: Staphylococcus aureus, USA300, 3 h.
The next assay relates to K. pneumoniae. It counts as cell-based, Klebsiella pneumoniae. The settings on record: 50 μM final drug concentration; for fold induction at 50 µM: Klebsiella pneumoniae, 3 h.
Assay [2] has as its system A. baumannii strain 98-37-09. In kind it is cell-based, Acinetobacter baumannii. The settings on record: 50 μM final drug concentration; for fold induction at 50 µM: Acinetobacter baumannii, 983709, 3 h.
A further assay relates to P. aeruginosa. It counts as cell-based, Pseudomonas aeruginosa. The settings on record: 50 μM final drug concentration; for fold induction at 50 µM: Pseudomonas aeruginosa, 3 h.
In another assay the test system is E. cloacae. In kind it is cell-based, Enterobacter cloacae. The note with it: 50 μM final drug concentration; for fold induction at 50 µM: Enterobacter cloacae, 3 h.
For the next assay, the system named is E. coli. It counts as cell-based, Escherichia coli. The note with it: 50 μM final drug concentration; for fold induction at 50 µM: Escherichia coli, 3 h.
The mark [3] stands for this setting: cutoff for positive-scoring molecules 3-fold increase.
Setting [4] is: planktonic E. faecium, 384-well, cutoff for positive-scoring molecules 3-fold increase, read-out: AK-based Prestwick Library Screening Results: E. faecium (increase in extracellular AK activity).
Where [5] appears, read: planktonic S. aureus, 384-well, cutoff for positive-scoring molecules 3-fold increase, read-out: AK-based Prestwick Library Screening Results: S. aureus (increase in extracellular AK activity).
[6] abbreviates: planktonic K. pneumoniae, 384-well, cutoff for positive-scoring molecules 3-fold increase, read-out: AK-based Prestwick Library Screening Results: K. pneumoniae (increase in extracellular AK activity).
[7] abbreviates: planktonic A. baumannii, 384-well, cutoff for positive-scoring molecules 3-fold increase, read-out: AK-based Prestwick Library Screening Results: A. baumannii (increase in extracellular AK activity).
The mark [8] stands for this setting: planktonic P. aeruginosa, 384-well, cutoff for positive-scoring molecules 3-fold increase, read-out: AK-based Prestwick Library Screening Results: P. aeruginosa (increase in extracellular AK activity).
Where [9] appears, read: planktonic E. cloacae, 384-well, cutoff for positive-scoring molecules 3-fold increase, read-out: AK-based Prestwick Library Screening Results: E. cloacae (increase in extracellular AK activity).
[10] abbreviates: planktonic E. coli, 384-well, cutoff for positive-scoring molecules 3-fold increase, read-out: AK-based Prestwick Library Screening Results: E. coli (increase in extracellular AK activity).
The mark [11] stands for this setting: planktonic E. faecium, positive cutoff 3-fold increase, read-out: AK-based Prestwick library screening result, E. faecium (fold increase in extracellular AK activity).
Where [12] appears, read: planktonic S. aureus, positive cutoff 3-fold increase, read-out: AK-based Prestwick library screening result, S. aureus (fold increase in extracellular AK activity).
Setting [13] is: planktonic K. pneumoniae, positive cutoff 3-fold increase, read-out: AK-based Prestwick library screening result, K. pneumoniae (fold increase in extracellular AK activity).
Setting [14] is: planktonic A. baumannii, positive cutoff 3-fold increase, read-out: AK-based Prestwick library screening result, A. baumannii (fold increase in extracellular AK activity).
Setting [15] is: planktonic P. aeruginosa, positive cutoff 3-fold increase, read-out: AK-based Prestwick library screening result, P. aeruginosa (fold increase in extracellular AK activity).
Where [16] appears, read: planktonic E. cloacae, positive cutoff 3-fold increase, read-out: AK-based Prestwick library screening result, E. cloacae (fold increase in extracellular AK activity).
[17] abbreviates: planktonic E. coli, positive cutoff 3-fold increase, read-out: AK-based Prestwick library screening result, E. coli (fold increase in extracellular AK activity).

Consider Timolol maleate salt, for which, in the assay on E. faecium (setting [3]), the “AK-based Prestwick Library Screening Results, E. faecium (fold increase in extracellular AK activity)” value is given as 1.0. For the same molecule, in assay [1] (setting [3]), the “AK-based Prestwick Library Screening Results, S. aureus (fold increase in extracellular AK activity)” value is 1.3. Moreover, the “AK-based Prestwick Library Screening Results, K. pneumoniae (fold increase in extracellular AK activity)” value in the assay on K. pneumoniae (setting [3]) is given as 1.1. In addition, the “AK-based Prestwick Library Screening Results, A. baumannii (fold increase in extracellular AK activity)” value in assay [2] (setting [3]) is 1.5. Moreover, the “AK-based Prestwick Library Screening Results, P. aeruginosa (fold increase in extracellular AK activity)” value in the assay with P. aeruginosa (setting [3]) is on record as 1.1. The “AK-based Prestwick Library Screening Results, E. cloacae (fold increase in extracellular AK activity)” value in the assay on E. cloacae (setting [3]) was determined as 1.4. The “AK-based Prestwick Library Screening Results, E. coli (fold increase in extracellular AK activity)” value in the assay with E. coli (setting [3]) is given as 1.3.
Consider `N[C@@H](Cc1cc(I)c(Oc2cc(I)c(O)c(I)c2)c(I)c1)C(=O)O` [Thyroxine (L)], for which, in the assay on E. faecium (planktonic E. faecium, 384-well, […]), the “AK-based Prestwick Library Screening Results: E. faecium (increase in extracellular AK activity)” value is listed as 1.0. Besides, in assay [1] (planktonic S. aureus, 384-well, […]), the “AK-based Prestwick Library Screening Results: S. aureus (increase in extracellular AK activity)” value came to 0.2. In addition, the “AK-based Prestwick Library Screening Results: K. pneumoniae (increase in extracellular AK activity)” value in the assay on K. pneumoniae (planktonic K. pneumoniae, 384-well, […]) is 0.4. Besides, the “AK-based Prestwick Library Screening Results: A. baumannii (increase in extracellular AK activity)” value in assay [2] (planktonic A. baumannii, 384-well, […]) is reported as 0.4. Besides, the “AK-based Prestwick Library Screening Results: P. aeruginosa (increase in extracellular AK activity)” value in the assay on P. aeruginosa (planktonic P. aeruginosa, 384-well, […]) is recorded as 0.4. Further, in the assay on E. cloacae (planktonic E. cloacae, 384-well, […]), the “AK-based Prestwick Library Screening Results: E. cloacae (increase in extracellular AK activity)” value came to 0.3. In the assay with E. coli (planktonic E. coli, 384-well, […]), the “AK-based Prestwick Library Screening Results: E. coli (increase in extracellular AK activity)” value was 0.5.
Take `CN1CCC(=C2c3ccccc3CC(=O)c3sccc32)CC1` [Ketotifen fumarate]: the fold induction at 50 µM amounted to 1 in the assay on E. faecium (planktonic, cutoff for positive 3-fold increase, read-out: AK-based Prestwick Library Screening Results, E. faecium (fold increase in extracellular AK activity)); 1.1 in assay [1] (planktonic, cutoff for positive 3-fold increase, read-out: AK-based Prestwick Library Screening Results, S. aureus (fold increase in extracellular AK activity)); 0.9 in the assay with K. pneumoniae (planktonic, cutoff for positive 3-fold increase, read-out: AK-based Prestwick Library Screening Results, K. pneumoniae (fold increase in extracellular AK activity)); 1.1 in assay [2] (planktonic, cutoff for positive 3-fold increase, read-out: AK-based Prestwick Library Screening Results, A. baumannii (fold increase in extracellular AK activity)); 1.1 in the assay on P. aeruginosa (planktonic, cutoff for positive 3-fold increase, read-out: AK-based Prestwick Library Screening Results, P. aeruginosa (fold increase in extracellular AK activity)); 1.7 in the assay on E. cloacae (planktonic, cutoff for positive 3-fold increase, read-out: AK-based Prestwick Library Screening Results, E. cloacae (fold increase in extracellular AK activity)). For the same molecule, the fold induction at 50 µM in the assay with E. coli (planktonic, cutoff for positive 3-fold increase, read-out: AK-based Prestwick Library Screening Results, E. coli (fold increase in extracellular AK activity)) was 1.3.
Consider `CN(C(=O)CN(CCO)CC(=O)N(C)C(C)(C)Cc1ccccc1)C(C)(C)Cc1ccccc1` [Oxethazaine], for which the fold induction at 50 µM in the assay on E. faecium (setting [4]) came out at 1; in assay [1] (setting [5]), 1; in the assay on K. pneumoniae (setting [6]) it was 1.5; in assay [2] (setting [7]), 4.2; with P. aeruginosa (setting [8]), 1; in the assay with E. cloacae (setting [9]) it was 1.5. Moreover, the fold induction at 50 µM with E. coli (setting [10]) is 1.4.
As to `CC1=C(CC(=O)O)c2cc(F)ccc2/C1=C\c1ccc([S+](C)[O-])cc1` (stereo not drawn) [Sulindac], the fold induction at 50 µM amounted to 0.9 in the assay with E. faecium (setting [4]); 0.8 in assay [1] (setting [5]); 1 in the assay with K. pneumoniae (setting [6]); 1.1 in assay [2] (setting [7]); 0.8 with P. aeruginosa (setting [8]); 1.5 in the assay on E. cloacae (setting [9]). In addition, the fold induction at 50 µM in the assay on E. coli (setting [10]) amounted to 1.1.
For `COC(=O)C1=C(C)NC(C)=C(C(=O)OCC(C)C)C1c1ccccc1[N+](=O)[O-]` (stereo not drawn) [Nisoldipine], the fold induction at 50 µM with E. faecium (planktonic, cutoff for positive-scoring molecules 3-fold increase, read-out: AK-based Prestwick Library Screening Results, E. faecium (fold increase in extracellular AK activity)) amounted to 0.9; in assay [1] (planktonic, cutoff for positive-scoring molecules 3-fold increase, read-out: AK-based Prestwick Library Screening Results, S. aureus (fold increase in extracellular AK activity)) it was 0.4; with K. pneumoniae (planktonic, cutoff for positive-scoring molecules 3-fold increase, read-out: AK-based Prestwick Library Screening Results, K. pneumoniae (fold increase in extracellular AK activity)) it was 0.7; in assay [2] (planktonic, cutoff for positive-scoring molecules 3-fold increase, read-out: AK-based Prestwick Library Screening Results, A. baumannii (fold increase in extracellular AK activity)), 1.4; in the assay with P. aeruginosa (planktonic, cutoff for positive-scoring molecules 3-fold increase, read-out: AK-based Prestwick Library Screening Results, P. aeruginosa (fold increase in extracellular AK activity)) it was 0.8; in the assay with E. cloacae (planktonic, cutoff for positive-scoring molecules 3-fold increase, read-out: AK-based Prestwick Library Screening Results, E. cloacae (fold increase in extracellular AK activity)), 1. Moreover, in the assay with E. coli (planktonic, cutoff for positive-scoring molecules 3-fold increase, read-out: AK-based Prestwick Library Screening Results, E. coli (fold increase in extracellular AK activity)), the fold induction at 50 µM worked out at 0.9.
`C[C@]1(OC(=O)/C=C/c2ccccc2)C[C@@H](O)[C@]2(O)C=CO[C@@H](O[C@@H]3O[C@H](CO)[C@@H](O)[C@H](O)[C@H]3O)[C@@H]21` [Harpagoside]: the fold induction at 50 µM amounted to 0.9 in the assay on E. faecium (setting [11]); 0.8 in assay [1] (setting [12]); 0.7 in the assay with K. pneumoniae (setting [13]); 0.9 in assay [2] (setting [14]); 0.8 with P. aeruginosa (setting [15]); 0.9 in the assay on E. cloacae (setting [16]). For the same molecule, the fold induction at 50 µM in the assay with E. coli (setting [17]) came out at 0.8.
`C[C@H]1[C@H](C)CC[C@]2(C(=O)O)CC[C@]3(C)C(=CC[C@@H]4[C@@]5(C)CC[C@H](O)C(C)(C)[C@@H]5CC[C@]43C)[C@H]12` [Ursolic acid]: the fold induction at 50 µM was 2.8 in the assay on E. faecium (384-well format, cutoff for positive-scoring molecules 3-fold increase, read-out: AK-based Prestwick Library Screening Results, E. faecium (increase in extracellular AK activity)); 0.1 in assay [1] (384-well format, cutoff for positive-scoring molecules 3-fold increase, read-out: AK-based Prestwick Library Screening Results, S. aureus (increase in extracellular AK activity)); 0.4 in the assay on K. pneumoniae (384-well format, cutoff for positive-scoring molecules 3-fold increase, read-out: AK-based Prestwick Library Screening Results, K. pneumoniae (increase in extracellular AK activity)); 0.5 in assay [2] (384-well format, cutoff for positive-scoring molecules 3-fold increase, read-out: AK-based Prestwick Library Screening Results, A. baumannii (increase in extracellular AK activity)); 0.4 in the assay on P. aeruginosa (384-well format, cutoff for positive-scoring molecules 3-fold increase, read-out: AK-based Prestwick Library Screening Results, P. aeruginosa (increase in extracellular AK activity)); 0.5 in the assay on E. cloacae (384-well format, cutoff for positive-scoring molecules 3-fold increase, read-out: AK-based Prestwick Library Screening Results, E. cloacae (increase in extracellular AK activity)). For the same molecule, the fold induction at 50 µM in the assay with E. coli (384-well format, cutoff for positive-scoring molecules 3-fold increase, read-out: AK-based Prestwick Library Screening Results, E. coli (increase in extracellular AK activity)) came to 0.4.
In the case of `COCCCC/C(=N\OCCN)c1ccc(C(F)(F)F)cc1` [Fluvoxamine maleate], the fold induction at 50 µM in the assay on E. faecium (setting [11]) came to 0.8; in assay [1] (setting [12]), 0.7; with K. pneumoniae (setting [13]) it was 0.7; in assay [2] (setting [14]), 0.9; with P. aeruginosa (setting [15]), 0.8; in the assay with E. cloacae (setting [16]) it was 1.1. In addition, the fold induction at 50 µM in the assay with E. coli (setting [17]) was 0.9.
